# Reference: publication PMC7247319, “The mitochondria-targeted peptide SS-31 binds lipid bilayers and modulates surface electrostatics as a key component of its mechanism of action” (The Journal of Biological Chemistry, 2020)
# Where a SMILES comes first, the peptide text is derived from it. [ ]: non-standard residue; d: D form. Dmt = Cc1cc(O)cc(C)c1C[C@H](N)C(=O)O
# Key:
# [1] = test system: LUVs containing 20% TOCL or 20% POPG; assay: ANS fluorescence reporter of surface potential of model membranes; conditions: increasing [peptide]/[lipid]eff, 20% TOCL or 20% POPG LUVs
# Protocol: (§1) Figure 3. SS-31 binding and surface electrostatics. A, binding isotherms. Peptide was titrated with LUVs of the indicated composition (20% TOCL, [SS-31] = 7.5 μM and 20% POPG, [SS-31] = 3.8 μM) at 30-nmol total lipid increments in the presence of different concentrations of added KCl. Values shown are means ± S.D. (error bars) (n = 3), and lines show data fits based on Equation S3. […] B and C, effect of SS-31 binding on surface charge. Measurements of ζ (B) and ANS fluorescence (C) are shown as a function of [SS-31]/[lipid]^eff for membranes containing 20% TOCL and 20% POPG as indicated. Values shown are means ± S.D. (error bars) (n = 3).
# To continue this analysis, we determined the relationship between SS-31 binding and surface electrostatics by two complementary approaches. […] As an independent technique, we measured the effect of SS-31 on surface electrostatics using 1-anilinonaphthalene-8-sulfonic acid (ANS), a fluorescent reporter whose binding to anionic bilayers increases as the magnitude of the ψs is reduced, measured as an increase in probe emission intensity ([42]) (Fig. 3C and Fig. S9D). […]
# Steady-state fluorescence measurements were performed with a Fluorolog 3-22 spectrofluorometer (HORIBA Jobin-Yvon) equipped with photon-counting electronics, double-grating excitation and emission monochromators, automated Glan–Thompson polarizers, and a 450-watt xenon lamp. […]
# [2] = test system: LUVs containing 20 mol % TOCL or POPG; assay: Zeta potential measurements of LUVs with increasing peptide; conditions: LUVs 100 μM total lipid, n = 3
# Protocol: as §1
# To continue this analysis, we determined the relationship between SS-31 binding and surface electrostatics by two complementary approaches. We first performed zeta potential (ζ) measurements of LUVs containing 20 mol % TOCL or POPG with increasing [SS-31] (Fig. 3B). […] As an independent technique, we measured the effect of SS-31 on surface electrostatics using 1-anilinonaphthalene-8-sulfonic acid (ANS), a fluorescent reporter whose binding to anionic bilayers increases as the magnitude of the ψs is reduced, measured as an increase in probe emission intensity ([42]) (Fig. 3C and Fig. S9D). […]
structure (smiles),measurement,setting,value
"Cc1cc(O)cc(C)c1C[C@H](NC(=O)[C@H](N)CCCNC(=N)N)C(=O)N[C@@H](CCCCN)C(=O)N[C@@H](Cc1ccccc1)C(N)=O [SS-31, D-Arg-2′6′-dimethyl-Tyr-Lys-Phe-NH2] (H-[dR][Dmt]KF-NH2)",effect on ANS-detected surface potential (ψs) of anionic model membranes,[1],saturable ANS-detected reduction in the ψs
same,zeta potential (ζ) at saturation with increasing peptide,[2],~−30 mV
